The assay deals with SK-LMS-1. The experiment in a line: relative viability vs DMSO control (72 h) (fraction); higher = more viable cells. An outline of the steps: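 Sarcoma cell lines in 384-well plates, seeded to reach 80–90% confluence, were given compound after 24 h and kept 72 h at 37 °C, 5% CO2, with 0.1% DMSO vehicle and a 5 µM positive control. Relative viability came from ATPLite as percent growth, averaged over up to triplicate wells. On the rescaled values, 1 equals full and 0 equals none.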

Results on ten compounds are retold here after the supplement of paper PMC10883282.

Structures are written as SMILES. Counter-ions that a name gives are not always drawn. ± gives the standard deviation of the averaged measurements.

In turn, `COc1c(OCCCN2CCOCC2)ccc2c1N=C(NC(=O)c1cnc(N)nc1)N1CCN=C21` [Copanlisib] returned a relative viability (0.00017 µM) of 1.05 ± 0.059; a relative viability (0.00051 µM) of 0.995 ± 0.035; a relative viability (0.00152 µM) of 0.964 ± 0.032; a relative viability (0.00457 µM) of 0.814 ± 0.035; a relative viability (0.01372 µM) of 0.744 ± 0.042; a relative viability (0.04115 µM) of 0.629 ± 0.014. The relative viability is 0.539 ± 0.018 (0.1235 µM); 0.454 ± 0.017 (0.3704 µM); 0.365 ± 0.02 (1.111 µM); 0.296 ± 0.014 (3.333 µM); 0.302 ± 0.011 (10 µM).
In turn, `COc1cccc2c1C(=O)c1c(O)c3c(c(O)c1C2=O)C[C@@](O)(C(=O)CO)C[C@@H]3O[C@H]1C[C@H](N)[C@H](O)[C@H](C)O1` [Doxorubicin Hydrochloride] registered a relative viability (0.00017 µM) of 0.998 ± 0.032; a relative viability (0.00051 µM) of 1.02 ± 0.038; a relative viability (0.00152 µM) of 1.02 ± 0.044; a relative viability (0.00457 µM) of 1.03 ± 0.024; a relative viability (0.01372 µM) of 0.967 ± 0.047; a relative viability (0.04115 µM) of 0.781 ± 0.011. Also, the relative viability worked out at 0.649 ± 0.046 (0.1235 µM); 0.313 ± 0.025 (0.3704 µM); 0.209 ± 0.069 (1.111 µM); 0.296 ± 0.0043 (3.333 µM); 0.293 ± 0.0053 (10 µM).
Turning to `CO[C@H]1C[C@@H]2CC[C@@H](C)[C@@](O)(O2)C(=O)C(=O)N2CCCC[C@H]2C(=O)O[C@H]([C@H](C)C[C@@H]2CC[C@@H](OP(C)(C)=O)[C@H](OC)C2)CC(=O)[C@H](C)/C=C(\C)[C@@H](O)[C@@H](OC)C(=O)[C@H](C)C[C@H](C)/C=C/C=C/C=C/1C` [Ridaforolimus], the relative viability came out at 1.01 ± 0.067 (0.00017 µM); 0.903 ± 0.025 (0.00051 µM); 0.753 ± 0.016 (0.00152 µM); 0.67 ± 0.018 (0.00457 µM); 0.632 ± 0.029 (0.01372 µM); 0.594 ± 0.031 (0.04115 µM). Moreover, the relative viability is, setting by setting: (0.1235 µM) 0.559 ± 0.022; (0.3704 µM) 0.563 ± 0.031; (1.111 µM) 0.554 ± 0.021; (3.333 µM) 0.5602 ± 0.0032; (10 µM) 0.5145 ± 0.0018.
Take `COc1cc2nccc(Oc3ccc(NC(=O)Nc4cc(C)on4)c(Cl)c3)c2cc1OC` [Tivozanib]: the relative viability stood at 1.01 ± 0.022 (0.00017 µM); 0.999 ± 0.029 (0.00051 µM); 1.05 ± 0.04 (0.00152 µM); 1.05 ± 0.037 (0.00457 µM); 1.03 ± 0.038 (0.01372 µM); 0.9926 ± 0.0016 (0.04115 µM). Moreover, the relative viability came to 0.989 ± 0.036 (0.1235 µM); 1.08 ± 0.044 (0.3704 µM); 1.16 ± 0.043 (1.111 µM); 0.908 ± 0.058 (3.333 µM); 0.462 ± 0.015 (10 µM).
Turning to `C[C@@H](c1ccc2nccn2c1)n1nnc2ncc(-c3cnn(C)c3)nc21` [Volitinib], the relative viability by setting is: (0.00017 µM) 1.03 ± 0.013; (0.00051 µM) 0.979 ± 0.016; (0.00152 µM) 0.975 ± 0.027; (0.00457 µM) 0.958 ± 0.027; (0.01372 µM) 0.763 ± 0.019; (0.04115 µM) 0.636 ± 0.017. Moreover, the relative viability reads like this: (0.1235 µM) 0.548 ± 0.016; (0.3704 µM) 0.554 ± 0.024; (1.111 µM) 0.546 ± 0.019; (3.333 µM) 0.537 ± 0.016; (10 µM) 0.538 ± 0.0092.
Turning to `COc1cc2c(cc1O)CCN[C@]21CS[C@@H]2c3c(OC(C)=O)c(C)c4c(c3[C@H](COC1=O)N1[C@@H]2[C@H]2c3c(cc(C)c(OC)c3O)C[C@@H]([C@@H]1O)N2C)OCO4` [Trabectedin], the relative viability runs as follows: (2 pM) 1.06 ± 0.08; (5 pM) 1.04 ± 0.026; (15 pM) 1.03 ± 0.043; (50 pM) 1.06 ± 0.045; (0.00014 µM) 1.07 ± 0.052; (0.00041 µM) 0.848 ± 0.04. For the same compound, the relative viability is, setting by setting: (0.0012 µM) 0.255 ± 0.014; (0.0037 µM) 0.332 ± 0.006; (0.011 µM) 0.35 ± 0.014; (200 fM) 1.03 ± 0.076; (600 fM) 1.06 ± 0.048.
Turning to `Cc1nc(-c2cn3c(n2)-c2ccc(-c4cnn(C(C)(C)C(N)=O)c4)cc2OCC3)n(C(C)C)n1` [Taselisib], the relative viability is, setting by setting: (0.00017 µM) 0.978 ± 0.027; (0.00051 µM) 1.035 ± 0.0056; (0.00152 µM) 0.993 ± 0.043; (0.00457 µM) 0.9916 ± 0.0093; (0.01372 µM) 0.949 ± 0.021; (0.04115 µM) 0.833 ± 0.017. Also, the relative viability runs as follows: (0.1235 µM) 0.739 ± 0.018; (0.3704 µM) 0.676 ± 0.011; (1.111 µM) 0.6 ± 0.023; (3.333 µM) 0.454 ± 0.012; (10 µM) 0.315 ± 0.016.
Consider `COc1cc2c(Oc3ccc4[nH]c(C)cc4c3F)ncnc2cc1OCCCN1CCCC1` [Cediranib], for which the relative viability amounted to 1.01 ± 0.011 (0.00017 µM); 1.02 ± 0.028 (0.00051 µM); 1.02 ± 0.038 (0.00152 µM); 1.03 ± 0.052 (0.00457 µM); 0.989 ± 0.025 (0.01372 µM); 1.02 ± 0.042 (0.04115 µM). The relative viability by setting is: (0.1235 µM) 0.98 ± 0.017; (0.3704 µM) 0.977 ± 0.025; (1.111 µM) 0.925 ± 0.013; (3.333 µM) 0.911 ± 0.029; (10 µM) 0.462 ± 0.066.
As to `Cc1nc(NC(=O)N2CCC[C@H]2C(N)=O)sc1-c1ccnc(C(C)(C)C(F)(F)F)c1` [Alpelisib], the relative viability (0.00017 µM) amounted to 1.02 ± 0.024; the relative viability (0.00051 µM) was determined as 1.04 ± 0.048; the relative viability (0.00152 µM) is 1 ± 0.063; the relative viability (0.00457 µM) turned out to be 1.01 ± 0.022; the relative viability (0.01372 µM) is 0.967 ± 0.046; the relative viability (0.04115 µM) turned out to be 0.951 ± 0.048. The relative viability turned out to be 0.889 ± 0.043 (0.1235 µM); 0.8312 ± 0.0082 (0.3704 µM); 0.749 ± 0.055 (1.111 µM); 0.666 ± 0.025 (3.333 µM); 0.54 ± 0.044 (10 µM).
On to `COc1cc2/c(=N/c3ccc(Br)cc3F)nc[nH]c2cc1OCC1CCN(C)CC1` [Vandetanib], for which the relative viability is 0.994 ± 0.015 (0.00017 µM); 1.01 ± 0.029 (0.00051 µM); 1.02 ± 0.049 (0.00152 µM); 1.08 ± 0.015 (0.00457 µM); 1.02 ± 0.09 (0.01372 µM); 1.05 ± 0.039 (0.04115 µM). Moreover, the relative viability turned out to be 1.01 ± 0.015 (0.1235 µM); 1.03 ± 0.074 (0.3704 µM); 0.939 ± 0.011 (1.111 µM); 0.484 ± 0.0052 (3.333 µM); 0.103 ± 0.014 (10 µM).
